In patent US6541491B1, “4-mercaptopyrrolidine derivatives as farnesyl transferase inhibitors” (Zeneca Limited, priority 1995, dated 2003) one finds melting point and IC50 data, which are given here for two compounds.

Data set [1] deals with T1, Farnesyl protein transferase (FPT) (Homo sapiens, UniProt P49354+P49356).
T1 construct: partially purified from human placenta by ammonium sulphate fractionation; from tissue; host or cells: human placenta
The data set is described as follows: Farnesyl protein transferase (FPT) inhibition, tritiated farnesyl pyrophosphate incorporation into ras-CVIM. The conditions noted are these: FPT partially purified from human placenta; 300 nM tritiated farnesyl pyrophosphate, 120 nM ras-CVIM, 20 minutes at 37°. Format: biochemical. On the procedure:
Biological activity was tested as follows. Farnesyl protein transferase (FPT) was partially purified from human placenta by ammonium sulphate fractionation followed by a single Q-Sepharose® (Pharmacia. Inc) anion exchange chromatography essentially as described by Ray and Lopez-Belmonte (Ray K P and Lopez-Belmonte J (1992) Biochemical Society Transations 20 494-497). The substrate for FPT was Kras (CVIM C-terminal sequence). The cDNA for oncogenic val 12 variant of human c-Ki-ras-24B was obtained from the plasmid pSW11-1(ATCC). This was then subcloned into the polylinker of a suitable expression vector e.g. plC 147. The Kras was obtained after expression in the E. coli strain, BL21. The expression and purification of c-KI-ras-24B and the vall2 variant in E. coli has also been reported by Lowe et al (Lowe P N et al. J. Biol. Chem. (1991) 266 1672-1678).
Incubations with enzyme contained 300 nM tritiated farnesyl pyrophosphate (DuPont/New England Nuclear), 120 nM ras-CVIM, 50 mM Tris HCl pH 8.0. 5 mM MgCl2, 10 μM ZnCl2, 5 mM dithiotheitol and compounds were added at appropriate concentrations in DMSO (3% final concentration in test and vehicle control). […] Precipitated protein was then collected onto glass fibre filter mats (B) using a Tomtec® cell harvester and tritiated label was measured in a Wallac® 1204 Betaplate scintillation counter.

Molecules are shown by their SMILES. Structures can show the parent of a compound that is named as a salt.

`O=C(NCc1ccc(Cl)c(Cl)c1)c1ccc(C(=O)NC[C@@H]2C[C@H](S)CN2)nc1` (as salt: salt) [Example 13, 5-[N-(3,4-dichlorobenzyl)carbamoyl]-N-((2S,4S)-4-sulfanylpyrrolidin-2-yl-methyl)pyridine-2-carboxamide] displayed a melting point of 101 to 105 °C.
Consider `C=CCOC(=O)c1cc(NC(=O)[C@@H]2C[C@H](SC(C)=O)CN2C(=O)OCc2ccc([N+](=O)[O-])cc2)cc(C(=O)N(C)OC)c1` [Example 7, 5 {[(2S,4S),4-acetylsulfanyl-1-(4-nitro-benzyloxycarbonyl)-pyrrolidine-2-carbonyl]-amino}-3(N-methyl-methoxycarbamoyl)-benzoic acid allyl ester], for which, in data set [1], the IC50 is approximately 500 nM.

As usually defined, the melting point is the temperature, or range, at which the solid turns liquid. A word on the IC50: it is the concentration at which inhibition is half-maximal. The low end stands for higher potency, the high end for lower potency.
